Assay results reported in patent publication US20230126533A1, “Method of treating an inflammatory disorder” (The University of Miami, priority 2020, published 2023).
Starred links: 1 amine or outer side, 2 acyl side, 3 side chain; linkers in the order of their positions; H or OH if unused. Non-standard residues stand in square brackets, D forms with d. *: point of attachment. Tyr(Me) = O-methyl-tyrosine, COc1ccc(C[C@H](N[*:1])C(=O)[*:2])cc1; Phenylacetyl(2,3,4,5,6-F5) = O=C(Cc1c(F)c(F)c(F)c(F)c1F)*; Phe(F5) = N[C@@H](Cc1c(F)c(F)c(F)c(F)c1F)C(=O)O; hArg = N=C(N)NCCCC[C@H](N)C(=O)O; 12Ado = NCCCCCCCCCCCC(=O)O; Nle = CCCC[C@H](N)C(=O)O; Abu = CC[C@H](N)C(=O)O

Columns and labels:
[1] = test system: C57B1/6 mice challenged with Mycobacterium abscessus (MAB) microparticles; assay: Lung inflammation score in mouse model of pulmonary sarcoidosis; type: in vivo; details: AVR 5 microgram per mouse daily subcutaneous, after 3 weeks, vs saline granuloma group
Protocol: (§1) A mouse model of pulmonary sarcoidosis was previously established in C57B1/6 mice. Microparticles (Mycobacterium abscessus) developed in-house were administered intratracheally. The tongue was pulled out with a small spatula and microparticle was inserted into the trachea using a 20 G angio-catheter tube and advanced to main bronchus until reach to resistant. After tube placement, microparticles were administered (first dose of 50 μL=5×10^8, followed by up to 3 doses of 20 μL=2×10^8 of CFU of M. abscessus). The control group received only 20 μL PBS intratracheally.
The lung tissue was fixed in formalin and cut for histology. Developed noncaseating granuloma in the mouse lung was visualized with H&E staining and immunohistochemistry staining for CD68 macrophage marker, CD4 marker, and PD-L1.
(§2) One sarcoidosis group received AVR (“AVR group”), administered via subcutaneous injection, 5 microgram per mouse daily. Another sarcoidosis group received steroid treatment ([…], the current first line treatment for sarcoidosis) (“solu-medrol group”), and the final group received only saline (“granuloma group”). After 3 weeks mice were sacrificed and graded the inflammation in the lung samples.
Two mg of AVR-352 was added to 0.5 ml DMSO. After dissolving, 1,2-propanediol 10% was added to reach a volume of 40 ml. The fluid was sterilized by passing through a 0.22-micron filter. […]

iNOS = iNOS expression in lungs of MAB microparticle challenged mice; type: in vivo; details: mouse models of Example 3; vs MAB microparticle alone
Protocol: as §1, §2
Inducible Nitric oxide synthase (iNOS) plays important role in immune response to microbes. NO can control the production of Th1 immune responses by modulating IL-12 expression. NO plays an important inhibitory role in Th17 differentiation. […] To test whether AVR reduces iNOS expression in an inflammation model, lungs from mouse models described in Example 3 were evaluated for iNOS.

[2] = test system: PBMC of subjects with confirmed pulmonary sarcoidosis; assay: Apoptosis-related proteins in ex vivo sarcoidosis granuloma model (multiplex Elisa); type: cell-based, human; details: PBMC challenged with MAB microparticles 10:1, 48 h; for active caspase 3 concentration: 1 microM AVR
Excerpt: GHRHR antagonists induce apoptosis in cancer cells. The effects of GHRHR antagonist in immune cells still remains unclear. The ability of AVR to induce apoptosis in an ex vivo sarcoidosis model using PBMC of five subjects with confirmed pulmonary sarcoidosis was characterized.
PBMC samples were grouped as “control” (not challenged), “particles” (granuloma), “particles+AVR” (granuloma treated with 1 microM AVR), and “particles+Solu” (granuloma treated with methyl prednisolone as positive control). The “particle” groups were challenged with equal to 10:1 treatment with MAB microparticles. Media from all groups were removed 48 h after of treatments. Survivn, MCL-1/Bak Dimer, BClxL/Bak dimer, and active caspase 3 concentrations were measured using multiplex Elisa instrument and compared using t-test.

IL2, OAS1 and ISG15 = assay: Cytokine expression (Western blot) in lungs of MAB microparticle challenged mice; type: in vivo; details: mouse models of Example 3; vs MAB microparticle challenge
Protocol: as §1, §2
The effects of AVR on IL2 (T helper 1 cytokine) and Type I interferon cytokines (OAS1 and ISG15) were measured and compared in the lungs of mice models prepared as set forth in Example 3.

CD209f gene = assay: RNASeq gene expression in lungs of MAB microparticle challenged mice; type: in vivo, mouse; details: challenged mice with AVR treatment vs challenged mice
Protocol: as §1, §2
Whole gene expression was analyzed using RNASeq. Harvested lung from control, challenged, and treatment groups generated as described in Example 3 were used. RNA was isolated and RNASeq was performed at Genomic center at University of Miami. […] A heatmap was generated for the differentiating genes between challenged mice with MAB microparticles versus challenged mice with AVR treatment.

Compound	lung inflammation score (percentage of lung inflammation) [1]	iNOS expression in the challenged lung (iNOS)	active caspase 3 concentration [2]	IL2 expression in lung (IL2, OAS1 and ISG15)	ISG15 expression in lung (IL2, OAS1 and ISG15)	OAS1 expression in lung (IL2, OAS1 and ISG15)	CD209f gene expression in lung (CD209f gene)	MCL-1/Bak dimer concentration [2]
5FPhAC-Ada-Tyr-DArg-Asp-Ala-Ile-5FPhe-Thr-Ala-Har-Tyr(Me)-Arg-Lys-Val-Leu-Abu-Gln-Leu-Ser-Ala-Arg-Lys-Leu-Leu-Gln-Asp-Ile-Nle-DArg-Har-Ada-NH2 ({Phenylacetyl(2,3,4,5,6-F5)-12Ado}-Y[dR]DAI[Phe(F5)]TA[hArg][Tyr(Me)]RKVL[Abu]QLSARKLLQDI[Nle][dR][hArg]-{12Ado-NH2}; SMILES CCCC[C@H](NC(=O)[C@@H](NC(=O)[C@H](CC(=O)O)NC(=O)[C@H](CCC(N)=O)NC(=O)[C@H](CC(C)C)NC(=O)[C@H](CC(C)C)NC(=O)[C@H](CCCCN)NC(=O)[C@H](CCCNC(=N)N)NC(=O)[C@H](C)NC(=O)[C@H](CO)NC(=O)[C@H](CC(C)C)NC(=O)[C@H](CCC(N)=O)NC(=O)[C@H](CC)NC(=O)[C@H](CC(C)C)NC(=O)[C@@H](NC(=O)[C@H](CCCCN)NC(=O)[C@H](CCCNC(=N)N)NC(=O)[C@H](Cc1ccc(OC)cc1)NC(=O)[C@H](CCCCNC(=N)N)NC(=O)[C@H](C)NC(=O)[C@@H](NC(=O)[C@H](Cc1c(F)c(F)c(F)c(F)c1F)NC(=O)[C@@H](NC(=O)[C@H](C)NC(=O)[C@H](CC(=O)O)NC(=O)[C@@H](CCCNC(=N)N)NC(=O)[C@H](Cc1ccc(O)cc1)NC(=O)CCCCCCCCCCCNC(=O)Cc1c(F)c(F)c(F)c(F)c1F)[C@@H](C)CC)[C@@H](C)O)C(C)C)[C@@H](C)CC)C(=O)N[C@H](CCCNC(=N)N)C(=O)N[C@@H](CCCCNC(=N)N)C(=O)NCCCCCCCCCCCC(N)=O) [AVR]	significantly lower inflammation scores	significantly reduced MAB-induced increased iNOS expression	significantly increased	reduced significantly	reduced significantly	reduced significantly	significantly downregulated	
C[C@H]1C[C@@H]2[C@H]([C@@H](O)C[C@@]3(C)[C@H]2CC[C@]3(O)C(=O)COC(=O)CCC(=O)[O-])[C@@]2(C)C=CC(=O)C=C12.[Na+] [Solu-Medrol, reference compound]	less effect than AVR	reduced MAB-induced increased iNOS expression	significantly increased					significantly reduced
